Patent US10544150B2, “NK-3 receptor selective antagonist compounds, pharmaceutical composition and methods for use in NK-3 receptors mediated disorders” (Ogeda SA, priority 2010, dated 2020)

What was measured:
[1] = system: circulating levels of luteinizing hormone (LH); test: Castrated male rat model, circulating levels of luteinizing hormone (LH); assay type: in vivo; settings: castrated male SD rats, single intravenous dose (156 and 144: 10 mg/kg; 71: 15 mg/kg; 114: 20 mg/kg), 60 min post dosing (156 also 120 min), vs. baseline
human NK-3 receptor = human NK-3 receptor (Homo sapiens (Human), UniProt P29371); test: 3H-SB222200 binding competition assay with human NK-3 receptor; settings: 3H-SB222200 displacement, CHO cell membranes expressing human NK3 receptor; read-out: Ki range
Summary of the method: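 Radioligand displacement: 5 nM tritiated SB222200 competed by varying compound concentrations on recombinant CHO membranes bearing human NK3, buffer pH 7.4 with HEPES, NaCl, CaCl2, MgCl2, BSA and saponin. Filter-bound radioactivity quantified; calculated Ki given as ranges from +++ (<500 nM) to # (>5 μM).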

[2] = system: circulating levels of testosterone; test: Gonad-intact adult male rat, circulating levels of testosterone; assay type: in vivo; settings: gonad-intact male SD rats, single intravenous 20 mg/kg dose, over 420 min (AUC)
Method: Plasma testosterone levels are represented as an integrated testosterone response (AUC) over a 420 min period following dosing. […] Membrane suspensions were prepared from these cells. The following radioligand: [^125I]-His-MePhe7-Neurokinin B (PerkinElmer Cat # NEX285) was used in this assay. Binding assays were performed in a […]/1 mM CaCl2/5 mM MgCl2/0.5% BSA/10 μg/ml Saponin, at pH 7.4. Binding assays consisted of 25 μl of membrane suspension (approximately 5 μg protein/well in a 96 well plate), 50 μl of compound or reference ligand (MePhe7-Neurokinin B) at increasing concentrations (diluted in assay buffer) and 0.09 nM [^125I]-His-MePhe7-Neurokinin B. The plate was incubated 60 min at 25° C. in a water bath and then filtered over GF/C filters (Perkin Elmer, 6005174, presoaked in assay buffer without saponine for 2 h at room temperature) with a Filtration unit (Perkin Elmer). The radioactivity retained on the filters was measured by using the TopCount-NXT reader (Packard). […]

Chain of human NK-3 receptor (P29371 whole entry): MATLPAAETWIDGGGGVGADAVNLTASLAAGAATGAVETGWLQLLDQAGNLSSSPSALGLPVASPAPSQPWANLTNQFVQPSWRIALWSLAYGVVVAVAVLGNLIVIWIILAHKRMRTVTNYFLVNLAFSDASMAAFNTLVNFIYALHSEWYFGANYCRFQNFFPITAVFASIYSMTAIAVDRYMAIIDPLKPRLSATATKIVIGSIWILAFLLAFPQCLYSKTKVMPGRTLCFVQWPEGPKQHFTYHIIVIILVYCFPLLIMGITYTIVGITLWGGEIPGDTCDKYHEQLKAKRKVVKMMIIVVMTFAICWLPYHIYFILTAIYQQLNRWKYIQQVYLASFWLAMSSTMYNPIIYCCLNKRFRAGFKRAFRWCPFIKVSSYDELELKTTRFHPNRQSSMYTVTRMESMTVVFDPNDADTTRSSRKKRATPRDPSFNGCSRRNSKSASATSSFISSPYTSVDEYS

- Ki (human NK-3 receptor): < 500 nM
Structure (SMILES): C[C@@H]1c2nnc(-c3csc(-c4ccc(F)cc4F)n3)n2CCN1C(=O)c1ccc(-c2cccs2)cc1 [Compound 156, (R)-(3-(2-(2,4-difluorophenyl)thiazol-4-yl)-8-methyl-5,6-dihydro-[1,2,4]triazolo[4,3-a]pyrazin-7(8H)-yl)(4-(thiophen-2-yl)phenyl)methanone]
- effect on LH serum levels [1]: significantly suppressed GnRH-mediated elevation of LH
- effect on plasma testosterone levels [2]: significantly suppressed plasma testosterone levels
